Assays:
[1] = Concentration required to inhibit the growth of chang liver cells.; format: functional; settings: Homo sapiens
L1210 = test: Concentration required to inhibit the growth of L1210 cells.; format: functional, cell-based; settings: Mus musculus
Mus musculus [2] = test: Incidence of disease (mouse type II collagen) was scored as the percentage of animals within each experimental group that exhibited joint or limb inflammation on day 37 at intraperitoneal dose of 0.75 mg/kg; format: functional
Mus musculus [3] = test: Incidence of disease (mouse type II collagen) was scored as the percentage of animals within each experimental group that exhibited joint or limb inflammation on day 37 at intraperitoneal dose of 1.5 mg/kg; format: functional
Mus musculus [4] = test: Incidence of disease (mouse type II collagen) was scored as the percentage of animals within each experimental group that exhibited joint or limb inflammation on day 37 at intraperitoneal dose of 3 mg/kg; format: functional
Mus musculus [5] = test: Incidence of disease (mouse type II collagen) was scored as the percentage of animals within each experimental group that exhibited joint or limb inflammation on day 23 at intraperitoneal dose of 0.38 mg/kg; format: functional
Mus musculus [6] = test: Incidence of disease (mouse type II collagen) was scored as the percentage of animals within each experimental group that exhibited joint or limb inflammation on day 23 at intraperitoneal dose of 0.75 mg/kg; format: functional
Mus musculus [7] = test: Incidence of disease (mouse type II collagen) was scored as the percentage of animals within each experimental group that exhibited joint or limb inflammation on day 23 at intraperitoneal dose of 1.5 mg/kg; format: functional
Mus musculus [8] = test: Incidence of disease (mouse type II collagen) was scored as the percentage of animals within each experimental group that exhibited joint or limb inflammation on day 23 at intraperitoneal dose of 3 mg/kg; format: functional
Mus musculus [9] = test: Incidence of disease (mouse type II collagen) was scored as the percentage of animals within each experimental group that exhibited joint or limb inflammation on day 23 at intraperitoneal dose of 6 mg/kg; format: functional
Mus musculus [10] = test: Incidence of disease (mouse type II collagen) was scored as the percentage of animals within each experimental group that exhibited joint or limb inflammation on day 37 at intraperitoneal dose of 0.38 mg/kg; format: functional
Mus musculus [11] = test: Incidence of disease (mouse type II collagen) was scored as the percentage of animals within each experimental group that exhibited joint or limb inflammation on day 44 at intraperitoneal dose of 1.5 mg/kg; format: functional
Mus musculus [12] = test: Incidence of disease (mouse type II collagen) was scored as the percentage of animals within each experimental group that exhibited joint or limb inflammation on day 44 at intraperitoneal dose of 3 mg/kg; format: functional
Mus musculus [13] = test: Incidence of disease (mouse type II collagen) was scored as the percentage of animals within each experimental group that exhibited joint or limb inflammation on day 44 at intraperitoneal dose of 6 mg/kg; format: functional
Mus musculus [14] = test: Incidence of disease (mouse type II collagen) was scored as the percentage of animals within each experimental group that exhibited joint or limb inflammation on day 44 at intraperitoneal dose of 0.38 mg/kg; format: functional
Mus musculus [15] = test: Incidence of disease (mouse type II collagen) was scored as the percentage of animals within each experimental group that exhibited joint or limb inflammation on day 44 at intraperitoneal dose of 0.75 mg/kg; format: functional
Mus musculus [16] = test: Incidence of disease (mouse type II collagen) was scored as the percentage of animals within each experimental group that exhibited joint or limb inflammation on day 30 at intraperitoneal dose of 3 mg/kg; format: functional
Mus musculus [17] = test: Incidence of disease (mouse type II collagen) was scored as the percentage of animals within each experimental group that exhibited joint or limb inflammation on day 30 at intraperitoneal dose of 6 mg/kg; format: functional
Mus musculus [18] = test: Incidence of disease (mouse type II collagen) was scored as the percentage of animals within each experimental group that exhibited joint or limb inflammation on day 37 at intraperitoneal dose of 6 mg/kg; format: functional
Mus musculus [19] = test: Incidence of disease (mouse type II collagen) was scored as the percentage of animals within each experimental group that exhibited joint or limb inflammation on day 30 at intraperitoneal dose of 0.38 mg/kg; format: functional
Mus musculus [20] = test: Incidence of disease (mouse type II collagen) was scored as the percentage of animals within each experimental group that exhibited joint or limb inflammation on day 30 at intraperitoneal dose of 0.75 mg/kg; format: functional
Mus musculus [21] = test: Incidence of disease (mouse type II collagen) was scored as the percentage of animals within each experimental group that exhibited joint or limb inflammation on day 30 at intraperitoneal dose of 1.5 mg/kg; format: functional
Mus musculus [22] = test: Tested for antiinflammatory activity on mouse type II collagen arthritis as Paw swelling of all animals in each group on day 44 at intraperitoneal dose of 1.5 mg/kg; format: functional
Mus musculus [23] = test: Tested for antiinflammatory activity on mouse type II collagen arthritis as Paw swelling of all animals in each group on day 30 at intraperitoneal dose of 3 mg/kg; format: functional
Mus musculus [24] = test: Tested for antiinflammatory activity on mouse type II collagen arthritis as Paw swelling of all animals in each group on day 30 at intraperitoneal dose of 6 mg/kg; format: functional
Mus musculus [25] = test: Tested for antiinflammatory activity on mouse type II collagen arthritis as Paw swelling of all animals in each group on day 23 at intraperitoneal dose of 0.75 mg/kg; format: functional
Mus musculus [26] = test: Tested for antiinflammatory activity on mouse type II collagen arthritis as Paw swelling of all animals in each group on day 23 at intraperitoneal dose of 1.5 mg/kg; format: functional
Mus musculus [27] = test: Tested for antiinflammatory activity on mouse type II collagen arthritis as Paw swelling of all animals in each group on day 23 at intraperitoneal dose of 3 mg/kg; format: functional
Mus musculus [28] = test: Tested for antiinflammatory activity on mouse type II collagen arthritis as Paw swelling of all animals in each group on day 23 at intraperitoneal dose of 6 mg/kg; format: functional
Mus musculus [29] = test: Tested for antiinflammatory activity on mouse type II collagen arthritis as Paw swelling of all animals in each group on day 30 at intraperitoneal dose of 0.38 mg/kg; format: functional
Mus musculus [30] = test: Tested for antiinflammatory activity on mouse type II collagen arthritis as Paw swelling of all animals in each group on day 44 at intraperitoneal dose of 0.75 mg/kg; format: functional
Mus musculus [31] = test: Tested for antiinflammatory activity on mouse type II collagen arthritis as Paw swelling of all animals in each group on day 44 at intraperitoneal dose of 3 mg/kg; format: functional
Mus musculus [32] = test: Tested for antiinflammatory activity on mouse type II collagen arthritis as Paw swelling of all animals in each group on day 37 at intraperitoneal dose of 3 mg/kg; format: functional
Mus musculus [33] = test: Tested for antiinflammatory activity on mouse type II collagen arthritis as Paw swelling of all animals in each group on day 37 at intraperitoneal dose of 6 mg/kg; format: functional
Mus musculus [34] = test: Tested for antiinflammatory activity on mouse type II collagen arthritis as Paw swelling of all animals in each group on day 44 at intraperitoneal dose of 0.38 mg/kg; format: functional
Mus musculus [35] = test: Tested for antiinflammatory activity on mouse type II collagen arthritis as Paw swelling of all animals in each group on day 30 at intraperitoneal dose of 0.75 mg/kg; format: functional
Mus musculus [36] = test: Tested for antiinflammatory activity on mouse type II collagen arthritis as Paw swelling of all animals in each group on day 30 at intraperitoneal dose of 1.5 mg/kg; format: functional
Mus musculus [37] = test: Tested for antiinflammatory activity on mouse type II collagen arthritis as Paw swelling of all animals in each group on day 37 at intraperitoneal dose of 0.38 mg/kg; format: functional
Mus musculus [38] = test: Tested for antiinflammatory activity on mouse type II collagen arthritis as Paw swelling of all animals in each group on day 37 at intraperitoneal dose of 0.75 mg/kg; format: functional
Mus musculus [39] = test: Tested for antiinflammatory activity on mouse type II collagen arthritis as Paw swelling of all animals in each group on day 37 at intraperitoneal dose of 1.5 mg/kg; format: functional
Mus musculus [40] = test: Tested for antiinflammatory activity on mouse type II collagen arthritis as Paw swelling of all animals in each group on day 44 at intraperitoneal dose of 6 mg/kg; format: functional
Mus musculus [41] = test: Tested for antiinflammatory activity on mouse type II collagen arthritis as Paw swelling of all animals in each group on day 23 at intraperitoneal dose of 0.38 mg/kg; format: functional
Mus musculus [42] = test: Tested for antiinflammatory activity on mouse type II collagen arthritis as Paw swelling of all animals in each group on day 44 at intraperitoneal dose of 1.50 mg/kg; format: functional; settings: dose 1.5 mg/kg
Mus musculus [43] = test: Tested for antiinflammatory activity on mouse type II collagen arthritis as Paw swelling of all animals in each group on day 30 at intraperitoneal dose of 1.50 mg/kg; format: functional; settings: dose 1.5 mg/kg
Mus musculus [44] = test: Tested for antiinflammatory activity on mouse type II collagen arthritis as Paw swelling of all animals in each group on day 23 at intraperitoneal dose of 1.50 mg/kg; format: functional; settings: dose 1.5 mg/kg
Mus musculus [45] = test: Tested for antiinflammatory activity on mouse type II collagen arthritis as Paw swelling of all animals in each group on day 37 at intraperitoneal dose of 1.50 mg/kg; format: functional; settings: dose 1.5 mg/kg
Mus musculus [46] = test: Incidence of disease (mouse type II collagen) was scored as the percentage of animals within each experimental group that exhibited joint or limb inflammation on day 23 at intraperitoneal dose of 8 mg/kg; format: functional
Mus musculus [47] = test: Incidence of disease (mouse type II collagen) was scored as the percentage of animals within each experimental group that exhibited joint or limb inflammation on day 30 at intraperitoneal dose of 8 mg/kg; format: functional
Mus musculus [48] = test: Incidence of disease (mouse type II collagen) was scored as the percentage of animals within each experimental group that exhibited joint or limb inflammation on day 37 at intraperitoneal dose of 8 mg/kg; format: functional
Mus musculus [49] = test: Incidence of disease (mouse type II collagen) was scored as the percentage of animals within each experimental group that exhibited joint or limb inflammation on day 44 at intraperitoneal dose of 8 mg/kg; format: functional
Mus musculus [50] = test: Tested for antiinflammatory activity on mouse type II collagen arthritis as Paw swelling of all animals in each group on day 44 at intraperitoneal dose of 8 mg/kg; format: functional
Mus musculus [51] = test: Tested for antiinflammatory activity on mouse type II collagen arthritis as Paw swelling of all animals in each group on day 23 at intraperitoneal dose of 8 mg/kg; format: functional
Mus musculus [52] = test: Tested for antiinflammatory activity on mouse type II collagen arthritis as Paw swelling of all animals in each group on day 37 at intraperitoneal dose of 8 mg/kg; format: functional
Mus musculus [53] = test: Tested for antiinflammatory activity on mouse type II collagen arthritis as Paw swelling of all animals in each group on day 30 at intraperitoneal dose of 8 mg/kg; format: functional

CCCc1c(CNc2ccc(C(=O)NC(CCC(=O)O)C(=O)O)cc2)cnc2nc(N)nc(N)c12 (stereo unspecified)
IC50 [1]: 8.2 nM | IC50 (L1210): 6.5 nM | Animals (Mus musculus [2]): 0% | Animals (Mus musculus [3]): 0% | Animals (Mus musculus [4]): 14% | Animals (Mus musculus [5]): 0% | Animals (Mus musculus [6]): 0% | Animals (Mus musculus [7]): 0% | Animals (Mus musculus [8]): 0% | Animals (Mus musculus [9]): 0% | Animals (Mus musculus [10]): 75% | Animals (Mus musculus [11]): 0% | Animals (Mus musculus [12]): 29% | Animals (Mus musculus [13]): 0% | Animals (Mus musculus [14]): 88% | Animals (Mus musculus [15]): 50% | Animals (Mus musculus [16]): 14% | Animals (Mus musculus [17]): 25% | Animals (Mus musculus [18]): 25% | Animals (Mus musculus [19]): 0% | Animals (Mus musculus [20]): 0% | Animals (Mus musculus [21]): 0% | Paw swelling (Mus musculus [22]): 2.15 mm | Paw swelling (Mus musculus [23]): 2.24 mm | Paw swelling (Mus musculus [24]): 2.23 mm | Paw swelling (Mus musculus [25]): 2.13 mm | Paw swelling (Mus musculus [26]): 2.12 mm | Paw swelling (Mus musculus [27]): 2.12 mm | Paw swelling (Mus musculus [28]): 2.13 mm | Paw swelling (Mus musculus [29]): 2.13 mm | Paw swelling (Mus musculus [30]): 2.22 mm | Paw swelling (Mus musculus [31]): 2.2 mm | Paw swelling (Mus musculus [32]): 2.23 mm | Paw swelling (Mus musculus [33]): 2.22 mm | Paw swelling (Mus musculus [34]): 2.57 mm | Paw swelling (Mus musculus [35]): 2.17 mm | Paw swelling (Mus musculus [36]): 2.14 mm | Paw swelling (Mus musculus [37]): 2.22 mm | Paw swelling (Mus musculus [38]): 2.16 mm | Paw swelling (Mus musculus [39]): 2.19 mm | Paw swelling (Mus musculus [40]): 2.11 mm | Paw swelling (Mus musculus [41]): 2.11 mm

Nc1nc(N)c2cc(CNc3ccc(C(=O)NC(CCC(=O)O)C(=O)O)cc3)cnc2n1 (stereo unspecified)
Animals (Mus musculus [2]): 38% | Animals (Mus musculus [3]): 12% | Animals (Mus musculus [6]): 0% | Animals (Mus musculus [7]): 0% | Animals (Mus musculus [11]): 25% | Animals (Mus musculus [15]): 62% | Animals (Mus musculus [20]): 12% | Animals (Mus musculus [21]): 12% | Paw swelling (Mus musculus [42]): 2.21 mm | Paw swelling (Mus musculus [43]): 2.16 mm | Paw swelling (Mus musculus [25]): 2.14 mm | Paw swelling (Mus musculus [44]): 2.1 mm | Paw swelling (Mus musculus [30]): 2.28 mm | Paw swelling (Mus musculus [35]): 2.19 mm | Paw swelling (Mus musculus [38]): 2.23 mm | Paw swelling (Mus musculus [45]): 2.17 mm

Nc1nc(N)c2cc(CCc3ccc(C(=O)NC(CCC(=O)O)C(=O)O)s3)cnc2n1 (stereo unspecified)
Animals (Mus musculus [46]): 0% | Animals (Mus musculus [47]): 25% | Animals (Mus musculus [48]): 88% | Animals (Mus musculus [49]): 88% | Paw swelling (Mus musculus [50]): 2.63 mm | Paw swelling (Mus musculus [51]): 2.13 mm | Paw swelling (Mus musculus [52]): 2.6 mm | Paw swelling (Mus musculus [53]): 2.19 mm
